According to patent US6630485B2, “p38 map kinase inhibitors” (Syntex (U.S.A.) LLC, priority 1997, dated 2003):

Assays:
TNF-α [1] = experiment: Inhibition of LPS-induced TNF-α production in mice, in vivo assay; details: female BALB/c mice, dosed orally at 30 mg, 30 min before 20 μg LPS i.p., serum TNF-α after 1.5 h
Description: The ability of the compounds of this invention to inhibit the TNF-α release, in vivo, was determined using a minor modification of the methods described in described in Zanetti, G.; Heumann, D., et. al., “Cytokine production after intravenous or peritoneal Gram-negative bacterial challenge in mice,” J. Immunol., 148, 1890, (1992) and Sekut, L., Menius, J. A., et. al., “Evaluation of the significance of elevated levels of systemic and localized tumor necrosis factor in different animal models of inflammation,” J. Lab. Clin. Med., 124, 813, (1994).
Female BALB/c mice weighing 18-21 grams (Charles River, Hollister, Calif.) were acclimated for one week. Groups containing 8 […] each were dosed orally either with the test compounds dissolved in an aqueous vehicle containing 0.9% sodium chloride, 0.5% sodium carboxymethyl-cellulose, 0.4% polysorbate 80, 0.9% benzyl alcohol (CMC vehicle) or only vehicle (control group). After 30 min., the mice were injected intraperitoneally with 20 μg of LPS (Sigma, St. Louis, Mo.). After 1.5 h, the mice were sacrificed by CO2 inhalation and blood was harvested by cardiocentesis. Blood was clarified by centrifugation at 15,600×g for 5 min., and sera were transferred to clean tubes and frozen at −20° C. until analyzed for TNF-α by ELISA assay (Biosource International, Camarillo, Calif.) following the manufacturer's protocol.
The TNF-α inhibitory activity of test materials, i.e., the measure of the TNF-α content in the test group relative to the vehicle treated group (control group) at 30 mg was: […]

TNF-α [2] = experiment: Inhibition of LPS-induced TNF-α production in THP1 cells, in vitro assay (ELISA); assay type: cell-based; details: Homo sapiens; THP-1 cells, LPS 0.5 μg/ml, 2 h; read-out: IC50 (half-maximal reduction in 450 nm absorbance, TNF-α ELISA)
Description: The ability of the compounds of this invention to inhibit the TNF-α release was determined using a minor modification of the methods described in described in Blifeld, C. et al. Transplantation, Vol. 51(2), 498-503, (1991).
THP-1 cells were suspended in culture medium [RPMI (Gibco-BRL, Gailthersburg, Md.) containing 15% fetal bovine serum, 0.02 mM 2-mercaptoethanol], at a concentration of 2.5×10^6 cells/ml and then plated in 96 well plate (0.2 ml aliquots in each well). Test compounds were dissolved DMSO and then diluted with the culture medium such that the final DMSO concentration was 5%. 20 μl aliquots of test solution or only medium with DMSO (control) were added to each well. The cells were incubated for 30 min., at 37° C. LPS (Sigma, St. Louis, Mo.) was added to the wells at a final concentration of 0.5 μg/ml, and cells were incubated for an additional 2 h. At the end of the incubation period, culture supernatants were collected and the amount of TNF-α present was determined using an ELISA assay as described below.
The amount of human TNF-α present was determined by a specific trapping ELISA assay using two anti-TNF-α antibodies (2TNF-H22 and 2TNF-H34) described in Reimund, J. M., et al. GUT Vol. 39(5), 684-689 (1996).
Polystyrene 96-well plates were coated with 50 μl per well of antibody 2TNF-H22 in PBS (10 μg/ml) and incubated in a humidified chamber at 4° C. overnight. The plates were washed with PBS and then blocked with 5% nonfat-dry milk in PBS for 1 hour at room temperature and washed with 0.1% BSA (bovine serum albumin) in PBS.
TNF standards were prepared from a stock solution of human recombinant TNF-α (R&D Systems, Minneapolis, Minn.). The concentration of the standards in the assay began at 10 ng/ml followed by 6 half log serial dilution's.
25 μl aliquots of the above culture supernatants or TNF standards or only medium (control) were mixed with 25 μl aliquots of biotinylated monoclonal antibody 2TNF-H34 (2 μg/ml in PBS containing 0.1% BSA) and then added to each well. The samples were incubated for 2 h at room temperature with gentle shaking and then washed 3 times with 0.1% BSA in PBS. 50 μl of peroxidase-streptavidin (Zymed, S. San Francisco, Calif.) solution containing 0.416 μg/ml of peroxidase-streptavidin and 0.1% BSA in PBS was added to each well. The samples were incubated for an additional 1 h at room temperature and then washed 4 times with 0.1% BSA in PBS. 50 μl of O-phenylenediamine solution (1 μg/ml O-phenylene-diamine and 0.03% hydrogen peroxide in 0.2M citrate buffer pH 4.5) was added to each well and the samples were incubated in the dark for 30 min., at room temperature. Optical density of the sample and the reference were read at 450 nm and 650 nm, respectively. TNF-α levels were determined from a graph relating the optical density at 450 nm to the concentration used.
The IC50 value was defined as the concentration of the test compound corresponding to half-maximal reduction in 450 nm absorbance.

p38 MAP kinase = biological target: T1, p38 MAP kinase (Homo sapiens, UniProt Q16539); experiment: Inhibition of p-38 (MAP) kinase, in vitro assay (33P transfer from γ-33P-ATP to Myelin Basic Protein); assay type: biochemical; details: phosphorylated recombinant p38 MAP kinase, MBP substrate, 30° C., read-out: IC50 (concentration causing 50% inhibition of the p-38 enzyme)
T1 construct: made in house; host or cells: E. coli
T1 sequence (Q16539 whole entry): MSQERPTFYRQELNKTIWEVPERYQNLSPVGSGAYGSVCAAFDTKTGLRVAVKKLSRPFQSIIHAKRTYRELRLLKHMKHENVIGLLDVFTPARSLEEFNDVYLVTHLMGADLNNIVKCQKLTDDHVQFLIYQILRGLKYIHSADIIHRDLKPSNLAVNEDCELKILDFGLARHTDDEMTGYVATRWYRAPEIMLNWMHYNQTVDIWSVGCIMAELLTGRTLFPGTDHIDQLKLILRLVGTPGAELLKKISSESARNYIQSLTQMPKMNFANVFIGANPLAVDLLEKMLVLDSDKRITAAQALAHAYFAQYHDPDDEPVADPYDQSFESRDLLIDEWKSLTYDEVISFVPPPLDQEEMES
Description: The p-38 MAP kinase inhibitory activity of compounds of this invention in vitro was determined by measuring the transfer of the γ-phosphate from γ-^33P-ATP by p-38 kinase to Myelin Basic Protein (MBP), using the a minor modification of the method described in Ahn, N. G.; et al. J. of Biol. Chem. Vol. 266(7), 4220-4227, (1991)
The phosphorylated form of the recombinant p38 MAP kinase was expressed with SEK-1 and MEKK in E. coli (see, Khokhlatchev, A. et al. J. of Biol. Chem. Vol. 272(17), 11057-11062, (1997) and then purified by affinity chromatography using a Nickel column.
The phosphorylated p38 MAP kinase was diluted in kinase buffer (20 mM 3-(N-morpholino)propanesulfonic acid, pH 7.2, 25 mM β-glycerol phosphate, 5 mM ethylene glycol-bis(beta-aminoethyl ether)-N,N,N′,N′-tetraacetic acid, 1 mM sodium vanadate, 1 mM dithiothreitol, 40 mM magnesium chloride). Test compound dissolved in DMSO or only DMSO (control) was added and the samples were incubated for 10 min. at 30° C. The kinase reaction was initiated by the addition of a substrate cocktail containing MBP and γ-^33P-ATP. After incubating for an additional 20 min. at 30° C., the reaction was terminated by adding 0.75% phosphoric acid. The phosphorylated MBP was then separated from the residual γ-^33P-ATP using a phosphocellulose membrane (Millipore, Bedfrod, Mass.) and quantitated using a scintillation counter (Packard, Meriden, Conn.).
The p-38 inhibitory activities (expressed as IC50, the concentration causing 50% inhibition of the p-38 enzyme being assayed) of some compounds of the invention is: […]

Row | melting point [°C] | IC50 (TNF-α [2]) [µM] | IC50 (p38 MAP kinase) [µM] | Compound | % Inhibition (TNF-α content in test group relative to vehicle treated group) (TNF-α [1]) [%]
1 | 225 to 228 | – | – | On1c(-c2ccncc2)c(-c2ccc(F)cc2)c2ncccc21 [compound 1, 3-(4-Fluorophenyl)-1-hydroxy-2-(pyridin-4-yl)-1H-pyrrolo[3,2-b]pyridine] | –
2 | 168 to 171.5 | 0.46 | 0.068 | COn1c(-c2ccncc2)c(-c2ccc(F)cc2)c2ncccc21 [compound 2, 3-(4-Fluorophenyl)-1-methoxy-2-(pyridin-4-yl)-1H-pyrrolo[3,2-b]pyridine] | 75
3 | 139 to 141 | – | 0.221 | Fc1ccc(-c2c(-c3ccncc3)n(OCCN3CCOCC3)c3cccnc23)cc1 [compound 3, 3-(4-Fluorophenyl)-1-[2-(morpholin-4-yl)ethoxy]-2-(pyridin-4-yl)-1H-pyrrolo[3,2-b]pyridine] | 56
4 | 95.9 to 98.7 | – | – | Fc1ccc(-c2c(-c3ccncc3)n(OCCN3CCCCC3)c3cccnc23)cc1 [compound 4, 3-(4-Fluorophenyl)-1-[2-(piperidin-1-yl)ethoxy]-2-(pyridin-4-yl)-1H-pyrrolo[3,2-b]pyridine] | –
5 | 123 to 129 | 0.12 | 0.246 | Fc1ccc(-c2c(-c3ccncc3)n(OCCN3CCCC3)c3cccnc23)cc1 [compound 5, 3-(4-fluorophenyl)-2-(pyridin-4-yl)-1-[2-(pyrrolidin-1-yl)ethoxy]-1H-pyrrolo[3,2-b]pyridine] | –
6 | > 285 | – | – | Fc1ccc(-c2c(-c3ccncc3)[nH]c3cccnc23)cc1 [compound 6, 3-(4-Fluorophenyl)-2-(pyridin-4-yl)-1H-pyrrolo[3,2-b]pyridine] | 68
7 | 204 to 206 | – | – | CCn1c(-c2ccncc2)c(-c2ccc(F)cc2)c2ncccc21 [compound 7, 1-Ethyl-3-(4-fluorophenyl)-2-(pyridin-4-yl)-1H-pyrrolo[3,2-b]pyridine] | –
8 | 171.2 to 173 | – | – | Fc1ccc(-c2c(-c3ccncc3)n(CCN3CCOCC3)c3cccnc23)cc1 [compound 8, 3-(4-Fluorophenyl)-2-(pyridin-4-yl)-1-[2-(morpholin-4-yl)ethyl]-1H-pyrrolo[3,2-b]-pyridine] | –
9 | 148.1 to 153.3 | 0.3 | – | Fc1ccc(-c2c(-c3ccncc3)n(CCN3CCCCC3)c3cccnc23)cc1 [compound 9, 3-(4-Fluorophenyl)-1-[2-(piperidin-1-yl)ethyl]-2-(pyridin-4-yl)-1H-pyrrolo[3,2-b]pyridine] | –
10 | 141 to 143 | – | 0.0855 | Fc1ccc(-c2c(-c3ccncc3)oc3cccnc23)cc1 [compound 101, 3-(4-Fluorophenyl)-2-(pyridin-4-yl)-furo[3,2-b]pyridine] | 86
11 | 224.8 to 225.2 | – | – | Fc1ccc(-c2c(-c3ccnc(Cl)n3)oc3cccnc23)cc1 [compound 102, 2-(2-Chloropyrimidin-4-yl)-3-(4-fluorophenyl)-furo[3,2-b]pyridine] | –
12 | 252.9 to 253.7 | – | – | Nc1nccc(-c2oc3cccnc3c2-c2ccc(F)cc2)n1 [compound 103, 2-(2-Aminopyrimidin-4-yl)-3-(4-fluorophenyl)-furo[3,2-b]pyridine] | –
13 | 256 to 257 | – | – | Fc1ccc(-c2c(-c3ccncc3)[nH]c3ccncc23)cc1 [compound 105, 3-(4-Fluorophenyl)-2-(pyridin-4-yl)-1H-pyrrolo[3,2-c]pyridine] | –
14 | – | 1.1 | 0.12 | Fc1ccc(-c2c(-c3ccncc3)[nH]c3nccnc23)cc1 [compound 106, 7-(4-Fluorophenyl)-6-(pyridin-4-yl)-5H-pyrrolo[2,3-b]pyrazine] | –
15 | – | 8.83 | 0.747 | N#CCCCn1c(-c2ccncc2)c(-c2ccc(F)cc2)c2nccnc21 [compound 108] | –
16 | – | 0.241 | 0.0344 | OCCNc1cc(-c2[nH]c3nccnc3c2-c2ccc(F)cc2)ccn1 [compound 112] | –
